Like-named read-outs stand apart in the source and are kept apart here.
Key:
A2780 = experiment: XTT cytotoxicity assay, 5-day culture, A2780; format: cell-based; conditions: Homo sapiens, 120 h, A2780, Ovarian Ca, 5 days, read-out: IC50 (μM ± SEM)
Protocol: (§1) Actinonin was assayed for cytotoxity in human ovarian carcinoma, prostate carcinoma, mammary carcinoma, head and neck squamous cell carcinoma (HNSSC), non-small-cell-lung-cancer adenocarcinoma (NSCLC-AdCa), and non-small-cell-lung-cancer squamous cells (NSCLC-SSC) (15). Actinonin was also tested against acute mylegenous leukemia (AML) cells.

TSU-PR^1 = experiment: XTT cytotoxicity assay, 5-day culture, TSU-PR1; format: cell-based; conditions: Homo sapiens, 120 h, TSU-PR1, Prostate Ca, 5 days, read-out: IC50 (μM ± SEM)
Protocol: as §1

PC-3 = experiment: XTT cytotoxicity assay, 5-day culture, PC-3; format: cell-based; conditions: Homo sapiens, 120 h, PC-3, Prostate Ca, 5 days, read-out: IC50 (μM ± SEM)
Protocol: as §1

DU-145 = experiment: XTT cytotoxicity assay, 5-day culture, DU-145; format: cell-based; conditions: Homo sapiens, 120 h, DU-145, Prostate Ca, 5 days, read-out: IC50 (μM ± SEM)
Protocol: as §1

HL-60 = experiment: XTT cytotoxicity assay, 5-day culture, HL-60; format: cell-based; conditions: Homo sapiens, 120 h, HL-60, PML, 5 days, read-out: IC50 (μM ± SEM)
Protocol: as §1

MDA-MB468 = experiment: XTT cytotoxicity assay, 5-day culture, MDA-MB468; format: cell-based; conditions: Homo sapiens, MDA-MB-468, 120 h, MDA-MB468, Mammary Ca, 5 days, read-out: IC50 (μM ± SEM)
Protocol: as §1

SK-BRIII = experiment: XTT cytotoxicity assay, 5-day culture, SK-BRIII; format: cell-based; conditions: Homo sapiens, 120 h, Mammary Ca, 5 days, read-out: IC50 (μM ± SEM)
Protocol: as §1

HT1080 = experiment: XTT cytotoxicity assay, 5-day culture, HT1080; format: cell-based; conditions: Homo sapiens, HT-1080, 120 h, HT1080, HNSSC, 5 days, read-out: IC50 (μM ± SEM)
Protocol: as §1

SK-LC-8 = experiment: XTT cytotoxicity assay, 5-day culture, SK-LC-8; format: cell-based; conditions: Homo sapiens, 120 h, SK-LC-8, NSCLC-AdCa, 5 days, read-out: IC50 (μM ± SEM)
Protocol: as §1

SK-LC-16 = experiment: XTT cytotoxicity assay, 5-day culture, SK-LC-16; format: cell-based; conditions: Homo sapiens, 120 h, SK-LC-16, NSCLC-SSC, 5 days, read-out: IC50 (μM ± SEM)
Protocol: as §1

[1] = test system: all the cell lines tested; experiment: Cytotoxicity of actinonin, summary over all cell lines tested; format: cell-based, human; conditions: in the μM range
Protocol: as §1

[2] = test system: CWR22 human prostate tumor; conditions: for Change in tumor Vol. (mm^3): initial 45 mm^3; for Ave. Tumor Diameter (mm ± SEM): initial tumor diameter 4.4
Protocol: Actinonin was also evaluated against the CWR22 human prostate tumor xenografted in nude mice (15).

[3] = test system: Daudi (B lineage Burkitt's lymphoma, CD13 negative) cells; experiment: Inhibition of tritiated thymidine incorporation, 5 day, Daudi; format: cell-based; conditions: Homo sapiens, 120 h, 5 days
Protocol: (§2) Actinonin was purchased from Sigma (St. Louis, Mo.). Biotinylated-Actinonin and all analogs were synthesized. Actinonin stock solution was 5 mg/ml in 10% ethanol. Biotinylated-actinonin and all other analogs were diluted in 10% DMSO to give stock solutions in the range of 1-20 mg/ml.
(§3) Daudi (B lineage Burkitt's lymphoma, CD13 negative) and HL60 (acute myeloid leukemia, CD13 positive) cells were maintained in culture using RPMI 1640 supplemented with 10% heat-inactivated FBS (Omega Scientific, Inc., Tarzana, Calif.) and 1% L-glutamine (Gibco/Invitrogen, Carlsbad, Calif.) at 37° C. in a humidified atmosphere of 5% CO2. Cell viability was higher than 90%, and cells were free of mycoplasma contamination.
(§4) An aliquot of 200 ul of cells (10,000 cells/well) was washed and incubated at 37° C. in 96-well plates in the presence or absence of actinonin/analogs. Serial dilutions were made in complete media. After 5 days of incubation, 50 ul of 10 uCi/mL tritiated thymidine (PerkinElmer, Boston, Mass.) was added to each well and allowed to incorporate for 5 hours. Plates were frozen at −80° C. overnight and cells were harvested onto filtermats (Wallac, Finland) using a semi-automatic harvester (Skatron, Sterling, Va.). Filtermats were counted in a 1205 Betaplate™ liquid scintillation counter (Wallac, Finland). The reference numbers refer to those analogs disclosed in Example 6. Compounds 35, 42, 48, 52, 53, and 56 are effective at inhibiting cell growth.

[4] = test system: HL60 (acute myeloid leukemia, CD13 positive) cells; experiment: Inhibition of tritiated thymidine incorporation, 5 day, HL60; format: cell-based; conditions: Homo sapiens, HL-60, 120 h, HL60, 5 days
Protocol: as §2, §3, §4

tumor cell lines = conditions: cited from earlier work
[5] = test system: human leukemia and lymphoma cells; conditions: cited from earlier work
AKR leukemia = conditions: cited from earlier work
Daudi and HL60 cells = experiment: Thymidine incorporation, summary statement on cell growth (Daudi and HL60); format: cell-based; conditions: summary of Tables 4 and 5
Protocol: as §2, §3, §4

[6] = read-out: Daudi IC50 (uM), 5 day thymidine incorporation
[7] = read-out: Daudi IC50 (ug/mL), 5 day thymidine incorporation
[8] = read-out: HL60 IC50 (uM), 5 day thymidine incorporation
[9] = read-out: HL60 IC50 (ug/mL), 5 day thymidine incorporation

## CCCCC[C@H](CC(=O)NO)C(=O)N[C@H](C(=O)N1CCC[C@H]1CO)C(C)C [Actinonin, (S,S,R)-(−)-Actinonin]
A2780
  IC50: 4.8 ± 1 µM
TSU-PR^1
  IC50: 9.1 ± 1.5 µM
PC-3
  IC50: 10 ± 1 µM
DU-145
  IC50: 17 µM
HL-60
  IC50: 6.8 ± 1 µM
MDA-MB468
  IC50: 7.1 ± 1 µM
SK-BRIII
  IC50: 7.9 ± 1 µM
HT1080
  IC50: 11 ± 2 µM
SK-LC-8
  IC50: 14 ± 2 µM
SK-LC-16
  IC50: 12 ± 2 µM
[1]
  cytotoxicity against all the cell lines tested: remarkably cytotoxic
[2]; 300 mg/kg ip
  Inhibition T/C %: 97%
  Change in tumor Vol. (mm^3): +36 mm^3
  Ave. Tumor Diameter (mm ± SEM): 5.4 ± 1 mm
[2]; 600 mg/kg ip
  Inhibition T/C %: 88%
  Change in tumor Vol. (mm^3): +142 mm^3
  Ave. Tumor Diameter (mm ± SEM): 7.1 ± 2 mm
[2]; at a dose slightly below the maximum tolerated dose (MTD) for the mouse
  tumor growth inhibition: excellent tumor growth inhibition
[3]; [6]
  IC50: 6.7 µM
[3]; [7]
  IC50: 2.6 µg/mL
[4]; [8]
  IC50: 10.6 µM
[4]; [9]
  IC50: 4.1 µg/mL
Tumor cell lines
  cytotoxicity towards tumor cell lines in vitro: exhibits cytotoxicity
[5]
  cell cycle arrest and apoptosis: induces GI arrest and apoptosis
AKR leukemia; AKR mice
  treatment of AKR leukemia: treats AKR leukemia
AKR leukemia; mouse, in vivo
  toxicity in AKR mice: minimal toxicity

## CCCCC[C@H](CC(=O)NO)C(=O)N[C@@H](Cc1ccccc1)C(=O)N1CCC[C@H]1CO [Compound 42, N1-(1-benzyl-2-(2-hydroxymethyl-pyrrolidin-1-yl)-2-oxo-ethyl)-N4-hydroxy-2-pentyl-succinamide]
[3]; [6]
  IC50: 12.9 µM
[3]; [7]
  IC50: 5.8 µg/mL
[4]; [8]
  IC50: 15.8 µM
[4]; [9]
  IC50: 7.1 µg/mL
Daudi and HL60 cells
  inhibiting cell growth: effective

## CC(C)[C@H](NC(=O)[C@H](C)CC(=O)NO)C(=O)N1CCC[C@H]1CO [Compound 48, N4-hydroxy-N1-(1-(2-hydroxymethyl-pyrrolidine-1-carbonyl)-2-methyl-propyl)-2-methyl-succinamide]
[3]; [6]
  IC50: 22.4 µM
[3]; [7]
  IC50: 8 µg/mL
[4]; [8]
  IC50: 29.5 µM
[4]; [9]
  IC50: 10.5 µg/mL
Daudi and HL60 cells
  inhibiting cell growth: effective

## CCCCC[C@H](CC(=O)NO)C(=O)N[C@@H](Cc1ccccc1)C(=O)N1CCC[C@H]1C [Compound 52]
[3]; [6]
  IC50: 2.7 µM
[3]; [7]
  IC50: 1.2 µg/mL
[4]; [8]
  IC50: 12.1 µM
[4]; [9]
  IC50: 5.2 µg/mL
Daudi and HL60 cells
  inhibiting cell growth: effective

## CCCCC[C@H](CC(=O)NO)C(=O)N[C@H](C(=O)N1CCC[C@H]1CN)C(C)C [Compound 53, N4-hydroxy-N1-(1-(2-methylamine-pyrrolidine-1-carbonyl)-2-methyl-propyl)-2-pentyl-succinamide]
[3]; [6]
  IC50: 18.2 µM
[3]; [7]
  IC50: 7 µg/mL
[4]; [8]
  IC50: 26 µM
[4]; [9]
  IC50: 10 µg/mL
Daudi and HL60 cells
  inhibiting cell growth: effective

## CCCCC[C@H](CC(=O)NO)C(=O)N[C@H](C(=O)N1CCC[C@H]1C(=O)O)C(C)C [Compound 56, N4-hydroxy-N1-(1-(2-carboxy-pyrrolidine-1-carbonyl)-2-methyl-propyl)-2-pentyl-succinamide]
[3]; [6]
  IC50: > 251 µM
[3]; [7]
  IC50: > 100 µg/mL
[4]; [8]
  IC50: > 251 µM
[4]; [9]
  IC50: > 100 µg/mL
Daudi and HL60 cells
  inhibiting cell growth: effective
